Key:
Type in all cases: in vivo
[1] = test system: Housefly [Musca domestica]; test: Housefly insecticidal test (HF); settings: μg of test compound per 25 female flies; mortality after 48 hours; max. test level 100 μg
Protocol: (§1) The compounds in Table 1 above were tested for insecticidal activity using the following testing procedures. LC50 values, based on the results of these tests and calculated according to dosage-mortality curves, are expressed in Table 2.
Housefly [Musca domestica]
The test compound was diluted in acetone and aliquots pipetted onto the bottom of aluminum dishes. To ensure even spreading of the chemical on the bottom of the dishes, 1 ml of acetone containing 0.01% peanut oil was also added to each dish. After all solvents had evaporated, the dishes were placed in circular cardboard cages containing 25 female houseflies, 1-2 days old. The cages were covered on the bottom with cellophane and on the top with tulle netting, and each contained a sugar-water saturated cotton plug for maintenance of the flies. Mortality was recorded after 48 hours. Test levels ranged from 100 μg/25 female houseflies downward. The LC-50 value is expressed below in Table 2 under the heading "HF", in terms of μg of the test compound per 25 female flies.

[2] = test system: Black Bean Aphid [Aphis fabae (Scop.)]; test: Black bean aphid insecticidal test (BBA); settings: percent in sprayed solution; mortality after 48 hours; max. 0.05%
Protocol: as §1
Black Bean Aphid [Aphis fabae (Scop.)]
Nasturtium plants (Tropaeolum sp.) approximately 5 cm tall, were transplanted into sandy loam soil in small cups and infested with 25-50 black bean aphids of mixed ages. Twenty-four hours later they were sprayed to the point of runoff with 50-50 acetone-water solutions of the test compound. Treated plants were held in the greenhouse and mortality was recorded after 48 hours. Test concentrations ranged from 0.05% downward. The LC-50 value is expressed below in Table 2 under the heading "BBA" in terms of percent of the test compound in the sprayed solution.

[3] = test system: two-spotted mite [Tetranychus urticae (Koch)], adults; test: Two-spotted mite acaricidal test, adults (2SM-A); settings: percent in dip solution, mortality after 5-7 days, max. 0.05%
From the text: (§2) Acaricidal Evaluation Test
(§3) The two-spotted mite (2SM) [Tetranychus urticae (Koch)] was employed in tests for miticides. The test procedure was as follows:
(§4) Pinto bean plants (Phaseolus sp.), approximately 10 cm tall, were transplanted into sandy loam soil in small cups and thoroughly infested with two-spotted mites of mixed ages and sexes. Twenty-four hours later the infested plants were inverted and dipped for 2-3 seconds in 50-50 acetone-water solutions of the test compound. Treated plants were held in the greenhouse, and 5-7 days later mortality was determined for both adult mites and the nymphs hatching from eggs which were on the plants at the time of treatment. Test concentrations ranged from 0.05% downward. The LC-50 value is expressed below in Table 2 under the headings "2SM-A" (i.e., adults) and "2SM-E" (i.e. eggs) in terms of percent concentration of the test compound in the solution.

[4] = test system: two-spotted mite [Tetranychus urticae (Koch)], eggs; test: Two-spotted mite acaricidal test, eggs (2SM-E); settings: percent in dip solution, mortality after 5-7 days, max. 0.05%
From the text: as §2, §3, §4

[5] = test system: Tobacco Budworm [Heliothis virescens (Fabricius)], eggs; test: Tobacco budworm egg test (TBW-E); settings: 2-day old eggs dipped; percent in acetone solution; max. 0.1%
Protocol: The compounds in Table 1 above were tested for insecticidal activity using the following testing procedures.
Tobacco Budworm [Heliothis virescens (Fabricius)]
Eggs: Paper towel patches of 2-day old eggs of the tobacco budworm were dipped in acetone solutions of the test compound and placed in petri dishes containing a portion of larval rearing medium. […] Test concentrations ranged from 0.1% downward. The LC-50 value is expressed below in Table 2 under the heading "TBW-E" in terms of percent of the test compound in the solution.

[6] = test system: Western Spotted Cucumber Beetle Larvae [Diabrotica undecimpunctata (Mannherheim)]; test: Western spotted cucumber beetle larvae soil test (Diab); settings: ppm in soil; max. 25 ppm
Protocol: as §1
Western Spotted Cucumber Beetle Larvae [Diabrotica undecimpunctata (Mannherheim)]
Ten grams of moist potting soil was placed in a plastic cup. The test compound was dissolved in acetone. A 0.05 ml aliquot of the test sample, diluted to the desired concentration, was added to the soil. The cup was capped and the soil was mixed on a vortex mixer for approximately 15 seconds. An indentation was made on the surface of the soil and approximately 50 Diabrotica eggs were added. The eggs were covered with soil and maintained at room temperature (approximately 70° F. or 21° C.). Four days later a section of Romaine lettuce (Latuca sativa) leaf was placed in the treated cups. One week later the cups were examined for live larvae. Test concentrations ranged from 25 ppm downward. The LC-50 value is expressed below in Table 2 under the heading "Diab" in terms of ppm of the test compound in the soil.

[7] = test system: Cabbage Looper [Trichoplusia ni (Hubner)]; test: Cabbage looper insecticidal test (CL); settings: second-instar larvae; percent in solution; mortality 3-5 days later; max. 0.1%
Protocol: as §1
Cabbage Looper [Trichoplusia ni (Hubner)]
The test compound was diluted in a 50-50 acetone-water solution. Cotyledons of hyzini squash (Calabacita abobrinha), approximately 1×1.5 inches, were immersed in the test solutions for 2-3 seconds and placed on a wire screen to dry. The dried leaves were placed in petri dishes containing a moistened piece of filter paper and infested with 5 second-instar cabbage looper larvae. The dishes were placed in a high humidity chamber. Mortality of the larvae was recorded 3-5 days later. Test concentrations ranged from 0.1% downward. The LC-50 value is expressed below in Table 2 under the heading "CL" in terms of percent of the test compound in solution.

Compound	LC50 HF [1] [µg]	LC50 BBA [2] [%]	LC50 2-SM A [3] [%]	LC50 2-SM E [4] [%]	LC50 TBW E [5] [%]	LC50 Diab. [6]	LC50 CL [7] [%]
CC(C)C(O)(CCc1cccc(Oc2ccccc2)c1)Cc1cccc(Cl)c1 (centres unmarked) [Compound 5]	84	0.05	> 0.05	> 0.05	> 0.1	> 25 ppm (soil)	0.008
Cc1ccc(CC(O)(CCc2cccc(Oc3ccccc3)c2)C(C)C)cc1 (centres unmarked) [Compound 2]	> 100	0.05	> 0.05	> 0.05	> 0.1	> 25 ppm (soil)	0.016
OC(CCc1cccc(Oc2ccccc2)c1)(Cc1ccc(Cl)cc1)C1CC1 (centres unmarked) [Compound 3]	> 100	> 0.05	> 0.05	> 0.05	> 0.1	> 25 ppm (soil)	0.025
CC(C)C(O)(CCc1cccc(Oc2ccccc2)c1)Cc1ccc(Cl)cc1 (centres unmarked) [Compound 1, 1-(4-chlorophenyl)-2-isopropyl-4-(3-phenoxyphenyl)-2-butanol]	> 100	0.05	> 0.05	> 0.05	> 0.1	> 25 ppm (soil)	0.015
OC(CCc1cccc(Oc2ccccc2)c1)(Cc1cccc(Cl)c1)C1CC1 (centres unmarked) [Compound 4]	> 100	> 0.05	> 0.05	> 0.05	> 0.1	> 25 ppm (soil)	0.035

From patent publication US5276205A, “Insecticides” (ICI Americas Inc., priority 1989, dated 1994)
